According to patent publication US20100267561A1, “HERBICIDAL PYRIDAZINONE DERIVATIVES” (priority 2007, published 2010):

Assays:
Type in all cases: in vivo
[1] = tested on: umbrella sedge (Cyperus difformis); experiment: Test B flooded paddy test plant response
From the text: (§1) Plant species in the flooded paddy test consisted of rice (Oryza sativa), umbrella sedge (Cyperus difformis), ducksalad (Heteranthera limosa) and barnyardgrass (Echinochloa crus-galli) grown to the 2-leaf stage for testing. At time of treatment, test pots were flooded to 3 cm above the soil surface, treated by application of test compounds directly to the paddy water, and then maintained at that water depth for the duration of the test. Treated plants and controls were maintained in a greenhouse for 13 to 15 days, after which time all species were compared to controls and visually evaluated. Plant response ratings, summarized in Table B, are based on a scale of 0 to 100 where 0 is no effect and 100 is complete control. A dash (-) response means no test result.

[2] = tested on: barnyardgrass (Echinochloa crus-galli); experiment: Test B flooded paddy test plant response
From the text: as §1

[3] = tested on: rice (Oryza sativa); experiment: Test B flooded paddy test plant response
From the text: as §1

[4] = tested on: ducksalad (Heteranthera limosa); experiment: Test B flooded paddy test plant response
From the text: as §1

[5] = tested on: giant foxtail (Setaria faberi); experiment: Test A pre-/postemergence plant response
From the text: (§2) Seeds of species selected from barnyardgrass (Echinochloa crus-galli), large crabgrass (Digitaria sanguinalis), giant foxtail (Setaria faberi), blackgrass (Alopecurus myosuroides), canarygrass (Phalaris minor), morningglory (Ipomoea coccinea), pigweed (Amaranthus retroflexus), velvetleaf (Abutilon theophrasti), wheat (Triticum aestivum), and corn (Zea mays) were planted into a blend of loam soil and sand and treated preemergence with a directed soil spray using test chemicals formulated in a non-phytotoxic solvent mixture which included a surfactant. At the same time these species were also treated with postemergence applications of test chemicals formulated in the same manner.
(§3) Plants ranged in height from 2 to 10 cm and were in the one- to two-leaf stage for the postemergence treatment. Treated plants and untreated controls were maintained in a greenhouse for approximately 10 days, after which time all treated plants were compared to untreated controls and visually evaluated for injury. Plant response ratings, summarized in Table A, are based on a 0 to 100 scale where 0 is no effect and 100 is complete control. A dash (-) response means no test results.

[6] = tested on: pigweed (Amaranthus retroflexus); experiment: Test A pre-/postemergence plant response
From the text: as §2, §3

[7] = tested on: large crabgrass (Digitaria sanguinalis); experiment: Test A pre-/postemergence plant response
From the text: as §2, §3

[8] = tested on: barnyardgrass (Echinochloa crus-galli); experiment: Test A pre-/postemergence plant response
From the text: as §2, §3

[9] = tested on: corn (Zea mays); experiment: Test A pre-/postemergence plant response
From the text: as §2, §3

[10] = tested on: wheat (Triticum aestivum); experiment: Test A pre-/postemergence plant response
From the text: as §2, §3

[11] = tested on: velvetleaf (Abutilon theophrasti); experiment: Test A pre-/postemergence plant response
From the text: as §2, §3

[12] = tested on: morningglory (Ipomoea coccinea); experiment: Test A pre-/postemergence plant response
From the text: as §2, §3

[13] = Flood (flooded paddy test), 62 g ai/ha, scale 0 to 100, 0 no effect, 100 complete control
[14] = Flood (flooded paddy test), 125 g ai/ha, scale 0 to 100, 0 no effect, 100 complete control
[15] = Flood (flooded paddy test), 250 g ai/ha, scale 0 to 100, 0 no effect, 100 complete control
[16] = Flood, 31 g ai/ha, scale 0 to 100
[17] = Postemergence, 125 g ai/ha, 0 to 100 scale, 0 no effect, 100 complete control
[18] = Postemergence, 500 g ai/ha, 0 to 100 scale, 0 no effect, 100 complete control
[19] = Preemergence, 125 g ai/ha, 0 to 100 scale (0 no effect, 100 complete control)
[20] = Preemergence, 500 g ai/ha, 0 to 100 scale (0 no effect, 100 complete control)

With Cc1nn(-c2ccc(Cl)cc2)cc1-c1c(O)cnn(C)c1=O [Compound 29] the “Plant response rating, Sedge, Umbrella” value [1, 13] was 0, the “Plant response rating, Sedge, Umbrella” value [1, 14] was 0 and the “Plant response rating, Sedge, Umbrella” value [1, 15] was 0. The “Plant response rating, Sedge, Umbrella” value [1, 16] was 0, the “Plant response rating, Barnyardgrass” value [2, 13] was 0 and the “Plant response rating, Barnyardgrass” value [2, 14] was 0. The “Plant response rating, Barnyardgrass” value [2, 15] was 0, the “Plant response rating, Barnyardgrass” value [2, 16] was 0 and the “Plant response rating, Rice” value [3, 13] was 0. For the same compound, the “Plant response rating, Rice” value [3, 14] was 0, the “Plant response rating, Rice” value [3, 15] was 0 and the “Plant response rating, Rice” value [3, 16] was 0. The “Plant response rating, Ducksalad” value [4, 13] was 0, the “Plant response rating, Ducksalad” value [4, 14] was 0 and the “Plant response rating, Ducksalad” value [4, 15] was 0. For the same compound, the “Plant response rating, Ducksalad” value [4, 16] was 0, the “Plant response rating, Foxtail, Giant” value [5, 17] was 0 and the “Plant response rating, Foxtail, Giant” value [5, 18] was 80. For the same compound, the “Plant response rating, Foxtail, Giant” value [5, 19] was 60, the “Plant response rating, Foxtail, Giant” value [5, 20] was 100 and the “Plant response rating, Pigweed” value [6, 17] was 0. The “Plant response rating, Pigweed” value [6, 18] was 0, the “Plant response rating, Pigweed” value [6, 19] was 0 and the “Plant response rating, Pigweed” value [6, 20] was 0. For the same compound, the “Plant response rating, Crabgrass, Large” value [7, 17] was 0, the “Plant response rating, Crabgrass, Large” value [7, 18] was 50 and the “Plant response rating, Crabgrass, Large” value [7, 19] was 0. For the same compound, the “Plant response rating, Crabgrass, Large” value [7, 20] was 40, the “Plant response rating, Barnyardgrass” value [8, 17] was 10 and the “Plant response rating, Barnyardgrass” value [8, 18] was 50. For the same compound, the “Plant response rating, Barnyardgrass” value [8, 19] was 0, the “Plant response rating, Barnyardgrass” value [8, 20] was 70 and the “Plant response rating, Corn” value [9, 17] was 0. For the same compound, the “Plant response rating, Corn” value [9, 18] was 0, the “Plant response rating, Corn” value [9, 19] was 0 and the “Plant response rating, Corn” value [9, 20] was 0. For the same compound, the “Plant response rating, Wheat” value [10, 17] was 0, the “Plant response rating, Wheat” value [10, 18] was 20 and the “Plant response rating, Wheat” value [10, 19] was 0. For the same compound, the “Plant response rating, Wheat” value [10, 20] was 0, the “Plant response rating, Velvetleaf” value [11, 17] was 0 and the “Plant response rating, Velvetleaf” value [11, 18] was 0. The “Plant response rating, Velvetleaf” value [11, 19] was 0, the “Plant response rating, Velvetleaf” value [11, 20] was 0 and the “Plant response rating, Morningglory” value [12, 17] was 0. For the same compound, the “Plant response rating, Morningglory” value [12, 18] was 0, the “Plant response rating, Morningglory” value [12, 19] was 0 and the “Plant response rating, Morningglory” value [12, 20] was 0.

With COc1ccc(-c2cc(C)n(-c3c(O)cnn(C)c3=O)n2)cc1 [Compound 62] the “Plant response rating, Sedge, Umbrella” value [1, 13] was 0, the “Plant response rating, Sedge, Umbrella” value [1, 14] was 0 and the “Plant response rating, Sedge, Umbrella” value [1, 15] was 0. The “Plant response rating, Sedge, Umbrella” value [1, 16] was 0, the “Plant response rating, Barnyardgrass” value [2, 13] was 0 and the “Plant response rating, Barnyardgrass” value [2, 14] was 0. For the same compound, the “Plant response rating, Barnyardgrass” value [2, 15] was 0, the “Plant response rating, Barnyardgrass” value [2, 16] was 0 and the “Plant response rating, Rice” value [3, 13] was 0. The “Plant response rating, Rice” value [3, 14] was 0, the “Plant response rating, Rice” value [3, 15] was 0 and the “Plant response rating, Rice” value [3, 16] was 0. For the same compound, the “Plant response rating, Ducksalad” value [4, 13] was 0, the “Plant response rating, Ducksalad” value [4, 14] was 0 and the “Plant response rating, Ducksalad” value [4, 15] was 0. The “Plant response rating, Ducksalad” value [4, 16] was 0, the “Plant response rating, Foxtail, Giant” value [5, 17] was 40 and the “Plant response rating, Foxtail, Giant” value [5, 18] was 60. For the same compound, the “Plant response rating, Foxtail, Giant” value [5, 19] was 0, the “Plant response rating, Foxtail, Giant” value [5, 20] was 30 and the “Plant response rating, Pigweed” value [6, 17] was 0. For the same compound, the “Plant response rating, Pigweed” value [6, 18] was 0, the “Plant response rating, Pigweed” value [6, 19] was 0 and the “Plant response rating, Pigweed” value [6, 20] was 0. The “Plant response rating, Crabgrass, Large” value [7, 17] was 50, the “Plant response rating, Crabgrass, Large” value [7, 18] was 90 and the “Plant response rating, Crabgrass, Large” value [7, 19] was 20. The “Plant response rating, Crabgrass, Large” value [7, 20] was 60, the “Plant response rating, Barnyardgrass” value [8, 17] was 40 and the “Plant response rating, Barnyardgrass” value [8, 18] was 100. The “Plant response rating, Barnyardgrass” value [8, 19] was 10, the “Plant response rating, Barnyardgrass” value [8, 20] was 90 and the “Plant response rating, Corn” value [9, 17] was 0. For the same compound, the “Plant response rating, Corn” value [9, 18] was 40, the “Plant response rating, Corn” value [9, 19] was 0 and the “Plant response rating, Corn” value [9, 20] was 20. For the same compound, the “Plant response rating, Wheat” value [10, 17] was 0, the “Plant response rating, Wheat” value [10, 18] was 20 and the “Plant response rating, Wheat” value [10, 19] was 0. For the same compound, the “Plant response rating, Wheat” value [10, 20] was 0, the “Plant response rating, Velvetleaf” value [11, 17] was 0 and the “Plant response rating, Velvetleaf” value [11, 18] was 0. For the same compound, the “Plant response rating, Velvetleaf” value [11, 19] was 0, the “Plant response rating, Velvetleaf” value [11, 20] was 0 and the “Plant response rating, Morningglory” value [12, 17] was 0. The “Plant response rating, Morningglory” value [12, 18] was 0, the “Plant response rating, Morningglory” value [12, 19] was 0 and the “Plant response rating, Morningglory” value [12, 20] was 0.
